Calls of active or inactive are those of the source. The rule behind the calls is not given here.
Legend:
Format in all cases: functional, cell-based
Hep 3B2 [1] = assay: Effect on luciferase reporter gene expression in human Hep3B cells after 18 hrs
Hep 3B2 [2] = assay: Inhibition of hypoxia-induced VEGF165 protein secretion in human Hep3B cells after 18 hrs by ELISA
Hep 3B2 [3] = assay: Growth inhibition of human Hep3B cells after 18 hrs
Hep 3B2 [4] = assay: Inhibition of hypoxia-induced activation of VEGF gene promoter in human Hep3B cells after 18 hrs by luciferase reporter gene assay

IC50 (Hep 3B2 [4]): 25 µM
SMILES: COC1CC(=O)c2c(C=O)cc(C)cc21 (centres undefined)
Activity (Hep 3B2 [1]): inactive
Activity (Hep 3B2 [2]): inactive
Activity (Hep 3B2 [3]): inactive
